According to patent US11376324B2, “Sting activating nanovaccine for immunotherapy” (The Board of Regents of the University of Texas System, priority 2016, dated 2022):

What was measured:
[1] = Histology of major organs (H&E); assay type: in vivo, C57BL/6 mice; settings: repeated injections, 10 μg OVA plus 150 μg
Experimental: FIG. 14. Histology analyses of major organs for safety assessment of PC7A nanovaccine. Representative H&E sections of the main organs from C57BL/6 mice after repeated injections of 10 μg OVA plus 150 μg PC7A NP or the same dose of Poly(I:C). Mice were sacrificed 24 h after the second injection (n=5 for each group).

IRF7 and CXCL10 = assay: q-RT-PCR of interferon-stimulated genes at injection site; assay type: in vivo, mice; settings: local tissue after s.c. injection
From the text: Samples were run in triplicate.

B16-OVA tumor = assay: B16-OVA melanoma tumor therapy; assay type: in vivo, C57BL/6 mice; settings: peptide 0.5 μg, s.c. day 5 and booster 5 days later
Experimental: Six to eight week old mice (n=10 for each group) were injected subcutaneously with B16-OVA or B16F10 melanoma cells (1.5×10^5), or TC-1 cells (1.5×10^5), MC38 cells (5×10^5) into the right flank of mice. […] Or at day 3, 6, 9 and 12, some groups were i.p. injected with 200 μg checkpoint inhibitors (anti-mPD-1, BioXcell, BE0146) for comparison or synergy evaluation. The tumor growth was subsequently measured twice a week using a digital caliper and calculated as 0.5×length×width^2 by blinded investigators. Mice were killed when tumor […] reached 1500 mm^3, the end point of tumor detection is 2-fold of the longest survival time (LST) of control group, so around 40 days for melanoma tumor model, and around 60 days for TC-1 and MC38 tumor models.

Row | Substance | histology of major organs (liver, spleen, kidney, heart) [1] | IRF7 and CXCL10 expression, 2 to 8 h (IRF7 and CXCL10) | tumor growth inhibition / survival benefit (in words) (B16-OVA tumor)
1 | Poly(I:C) | ballooned hepatocytes indicative of steatohepatitis | higher response in IRF7 and CXCL10 expressions in the early time points from 2 to 8 h than PC7A NP | –
2 | SIINFEKLTEWTSSNVMEERKIKV [OVA257-280] | – | – | did not offer any significant tumor growth inhibition or survival benefit over the PBS control
